Experiment: Resmetirom exposure parameters by dose, quartile and body weight
Format: in vivo, human
Procedure: Various body weight cutoffs for dosing were evaluated.

CC(C)c1cc(Oc2c(Cl)cc(-n3nc(C#N)c(=O)[nH]c3=O)cc2Cl)n[nH]c1=O [Resmetirom, 2-(3,5-dichloro-4-((5-isopropyl-6-oxo-1,6-dihydropyridazin-3-yl)oxy)phenyl)-3,5-dioxo-2,3,4,5-tetrahydro-1,2,4-triazine-6-carbonitrile]
Cmin,ss Geometric Mean (80 mg, 80-<90 kg): 20.7 ng/mL
Cmin,ss Mean (80 mg, 80-<90 kg): 55.9 ng/mL
Cmin,ss Median (80 mg, 80-<90 kg): 18.4 ng/mL
t1/2α Geometric Mean (80 mg, 80-<90 kg): 1.21 h
t1/2α Mean (80 mg, 80-<90 kg): 1.34 h
t1/2α Median (80 mg, 80-<90 kg): 1.24 h
t1/2β Geometric Mean (80 mg, 80-<90 kg): 5.15 h
t1/2β Mean (80 mg, 80-<90 kg): 6.04 h
t1/2β Median (80 mg, 80-<90 kg): 4.41 h
Cmin,ss Geometric Mean (80 mg, 90-<100 kg): 14.2 ng/mL
Cmin,ss Mean (80 mg, 90-<100 kg): 52.0 ng/mL
Cmin,ss Median (80 mg, 90-<100 kg): 12.0 ng/mL
t1/2α Geometric Mean (80 mg, 90-<100 kg): 1.10 h
t1/2α Mean (80 mg, 90-<100 kg): 1.21 h
t1/2α Median (80 mg, 90-<100 kg): 1.02 h
t1/2β Geometric Mean (80 mg, 90-<100 kg): 4.81 h
t1/2β Mean (80 mg, 90-<100 kg): 5.50 h
t1/2β Median (80 mg, 90-<100 kg): 4.29 h
Cmin,ss Geometric Mean (80 mg, 100-<110 kg): 13.2 ng/mL
Cmin,ss Mean (80 mg, 100-<110 kg): 37.3 ng/mL
Cmin,ss Median (80 mg, 100-<110 kg): 14.1 ng/mL
t1/2α Geometric Mean (80 mg, 100-<110 kg): 1.12 h
t1/2α Mean (80 mg, 100-<110 kg): 1.26 h
t1/2α Median (80 mg, 100-<110 kg): 1.12 h
t1/2β Geometric Mean (80 mg, 100-<110 kg): 4.99 h
t1/2β Mean (80 mg, 100-<110 kg): 5.86 h
t1/2β Median (80 mg, 100-<110 kg): 4.50 h
Cmin,ss Geometric Mean (80 mg, <80 kg): 26.7 ng/mL
Cmin,ss Mean (80 mg, <80 kg): 72.8 ng/mL
Cmin,ss Median (80 mg, <80 kg): 25.5 ng/mL
t1/2α Geometric Mean (80 mg, <80 kg): 1.13 h
t1/2α Mean (80 mg, <80 kg): 1.27 h
t1/2α Median (80 mg, <80 kg): 1.15 h
t1/2β Geometric Mean (80 mg, <80 kg): 5.03 h
t1/2β Mean (80 mg, <80 kg): 5.44 h
t1/2β Median (80 mg, <80 kg): 4.53 h
Percentage of Cave,ss in quartile (80 mg; Q1: [20-155) ng/mL): 31%
Percentage of Cave,ss in quartile (80 mg; Q2: [155-219) ng/mL): 31%
Percentage of Cave,ss in quartile (80 mg; Q3: [219-321) ng/mL): 22%
Percentage of Cave,ss in quartile (80 mg, Q4: [321-1326] ng/mL): 17%
Cmin,ss Geometric Mean (80 mg, ≥110 kg): 11.5 ng/mL
Cmin,ss Mean (80 mg, ≥110 kg): 26.0 ng/mL
Cmin,ss Median (80 mg, ≥110 kg): 9.77 ng/mL
t1/2α Geometric Mean (80 mg, ≥110 kg): 1.16 h
t1/2α Mean (80 mg, ≥110 kg): 1.30 h
t1/2α Median (80 mg, ≥110 kg): 1.11 h
t1/2β Geometric Mean (80 mg, ≥110 kg): 4.94 h
t1/2β Mean (80 mg, ≥110 kg): 5.30 h
t1/2β Median (80 mg, ≥110 kg): 4.45 h
Cmin,ss Geometric Mean (100 mg, 80-<90 kg): 32.0 ng/mL
Cmin,ss Mean (100 mg, 80-<90 kg): 100 ng/mL
Cmin,ss Median (100 mg, 80-<90 kg): 22.2 ng/mL
t1/2α Geometric Mean (100 mg, 80-<90 kg): 1.16 h
t1/2α Mean (100 mg, 80-<90 kg): 1.30 h
t1/2α Median (100 mg, 80-<90 kg): 1.08 h
t1/2β Geometric Mean (100 mg, 80-<90 kg): 5.58 h
t1/2β Mean (100 mg, 80-<90 kg): 7.13 h
t1/2β Median (100 mg, 80-<90 kg): 4.43 h
Cmin,ss Geometric Mean (100 mg, 90-<100 kg): 41.7 ng/mL
Cmin,ss Mean (100 mg, 90-<100 kg): 113 ng/mL
Cmin,ss Median (100 mg, 90-<100 kg): 51.0 ng/mL
t1/2α Geometric Mean (100 mg, 90-<100 kg): 1.39 h
t1/2α Mean (100 mg, 90-<100 kg): 1.54 h
t1/2α Median (100 mg, 90-<100 kg): 1.37 h
t1/2β Geometric Mean (100 mg, 90-<100 kg): 6.21 h
t1/2β Mean (100 mg, 90-<100 kg): 8.49 h
t1/2β Median (100 mg, 90-<100 kg): 5.29 h
Cmin,ss Geometric Mean (100 mg, 100-<110 kg): 26.5 ng/mL
Cmin,ss Mean (100 mg, 100-<110 kg): 65.4 ng/mL
Cmin,ss Median (100 mg, 100-<110 kg): 22.1 ng/mL
t1/2α Geometric Mean (100 mg, 100-<110 kg): 1.14 h
t1/2α Mean (100 mg, 100-<110 kg): 1.30 h
t1/2α Median (100 mg, 100-<110 kg): 1.34 h
t1/2β Geometric Mean (100 mg, 100-<110 kg): 5.55 h
t1/2β Mean (100 mg, 100-<110 kg): 7.08 h
t1/2β Median (100 mg, 100-<110 kg): 4.65 h
Cmin,ss Geometric Mean (100 mg, <80 kg): 31.4 ng/mL
Cmin,ss Mean (100 mg, <80 kg): 119 ng/mL
Cmin,ss Median (100 mg, <80 kg): 29.7 ng/mL

Reference: patent publication US12377104B1, “Methods for treating a fatty liver disease” (Madrigal Pharmaceuticals, Inc., priority 2024, dated 2025)
